Experimental data published in ChEMBL document CHEMBL5050859, “Gpx4 inhibitors, pharmaceutical compositions thereof, and their use for treating gpx4-mediated diseases” (2021).

Test system: Huh-7
Assay: Antiproliferative activity against human Huh-7 cells in presence of 1 uM liproxstatin-1 measured after 24 hrs by Cell Titer Glo assay
Assay type: functional, cell-based
Details: Huh-7, 24 h

Structure (SMILES)	EC50
C#CC(=O)N(c1cccc(Cl)c1)C1(C(=O)NCc2ccccc2)CCOCC1	> 10000 nM

Test system: Huh-7
Assay: Antiproliferative activity against human Huh-7 cells in presence of 1 uM ferrostatin-1 measured after 24 hrs by Cell Titer Glo assay
Assay type: functional, cell-based
Details: Huh-7, 24 h

Structure (SMILES)	EC50
C#CC(=O)N(c1cccc(Cl)c1)C1(C(=O)NCc2ccccc2)CCOCC1	> 10000 nM

Test system: Huh-7
Assay: Antiproliferative activity against human Huh-7 cells after 24 hrs by Cell Titer Glo assay
Assay type: functional, cell-based
Details: Huh-7, 24 h

Structure (SMILES)	EC50
C#CC(=O)N(Cc1ccc(C(=O)OC)cc1)C(C)C(=O)NCc1ccccc1 (configuration not stated)	100 nM
C#CC(=O)N(C1(C(=O)NCc2ccccc2)CCOCC1)C1(c2ccccc2)CC1	≤ 100 nM
C#CC(=O)N(c1ccc(N(C)C)cc1)C1(C(=O)NCc2ccccc2)CCOCC1	100 nM
C#CC(=O)N(c1cc2c(cc1I)OCO2)C(C(=O)NCc1ccccc1)c1ccccc1 (configuration not stated)	≤ 100 nM
C#CC(=O)N(c1ccc(Cl)cc1)C(C(=O)NC(C)(C)C)c1cccc(N)c1 (configuration not stated)	≤ 100 nM
C=CC(=O)N(C1CCC1)C1(C(=O)NCc2ccccc2)CCOCC1	> 10000 nM
C[Si](C)(C)C#CC(=O)N(c1cccc(Cl)c1)C1(C(=O)NCc2cccc(Cl)c2)CCOCC1	≤ 100 nM
C#CC(=O)N(c1ccc2[nH]ncc2c1)C1(C(=O)NCc2ccccc2)CCOCC1	100 nM
CN(C)C/C=C/C(=O)N(c1ccc2c(cnn2C)c1)C1(C(=O)NCc2ccccc2)CCOCC1	> 10000 nM
C#CC(=O)N(c1cccc(Cl)c1)C1(C(=O)NCc2ccccc2)CCOCC1	≤ 100 nM
C#CC(=O)N(c1ccc(N)cc1)C(C(=O)NC(C)(C)C)c1cccc(N)c1 (configuration not stated)	2000 nM
COc1ccc(N(C(=O)CCl)C2(C(=O)NCc3ccccc3)CCOCC2)cc1Cl	100 nM
C#CC(=O)N(c1ccc2ncn(C)c2c1)C1(C(=O)NCc2ccccc2)CCOCC1	500 nM
C#CC(=O)N(c1ccc(NS(C)(=O)=O)cc1)C(C(=O)NC(C)(C)C)c1cccc(N)c1 (configuration not stated)	> 10000 nM
C#CC(=O)N(c1cccc(S(C)(=O)=O)c1)C(C(=O)NCc1ccccc1)c1ccccc1 (configuration not stated)	100 nM
C#CC(=O)N(c1cccc(Cl)c1)C(C(=O)NCc1ccccc1)c1cccc(OCC(=O)OC)c1 (configuration not stated)	100 nM
C#CC(=O)N(c1cccc(S(N)(=O)=O)c1)C(C(=O)NC(C)(C)C)c1ccc(N)cc1 (configuration not stated)	> 10000 nM
C#CC(=O)N(c1cccc(C(=O)OC)c1)C(C(=O)NCc1ccccc1)c1ccccc1 (configuration not stated)	≤ 100 nM
Nc1ccc(N(C(=O)CCl)C(C(=O)NCCc2ccccc2)c2cccs2)cc1 (configuration not stated)	2000 nM
C#CC(=O)N(c1cccc(Cl)c1)C(C(=O)NCC1CC1)c1ccccc1 (configuration not stated)	≤ 100 nM
Cn1ncc2cc(N(C(=O)CCl)C3(C(=O)NCc4ccccc4)CCOCC3)ccc21	500 nM
C#CC(=O)N(c1ccc2nsnc2c1)C(C(=O)NCc1ccccc1)c1ccccc1 (configuration not stated)	≤ 100 nM
C#CC(=O)N(c1cccc(C(=O)OC)c1)C(C(=O)NCc1ccccc1)c1cccs1 (configuration not stated)	≤ 100 nM
C#CC(=O)N(c1ccc(O)cc1)C(C(=O)NC(C)(C)C)c1ccc(N)cc1 (configuration not stated)	> 10000 nM
C#CC(=O)N(c1cccc(Cl)c1)C(C(=O)NCc1ccccc1)c1ccc(N)cc1 (configuration not stated)	≤ 100 nM
